Experimental data reported in patent EP2951180B1, “2,6,7,8 SUBSTITUTED PURINES AS HDM2 INHIBITORS” (Merck Sharp & Dohme Corp., priority 2013, dated 2014).

These molecules were tested against T1, HDM2 (Homo sapiens, UniProt Q00987) (assay: HDM2 FRET assay (inhibition of binding of FITC labeled p53-pocket peptide to HDM2)). Conditions: Table 11; read-out: FRET IC50.
T1 construct: Thioredoxin (N); made in house; host or cells: E. coli strain BL21(DE3)Rosetta
How it was run: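 Final: 0.5 nM His-HDM2, 3 nM FITC peptide, 0.25 nM Tb anti-His Ab; PBS, 0.01% BSA, 0.01% Tween-20; 0.1% DMSO.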

T1 sequence (Q00987 17-125): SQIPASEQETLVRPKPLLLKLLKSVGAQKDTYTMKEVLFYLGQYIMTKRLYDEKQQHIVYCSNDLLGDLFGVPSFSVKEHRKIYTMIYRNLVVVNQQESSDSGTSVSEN

SMILES	IC50 [nM]
CC(C)CC1CCCCN1c1nc2nc(-c3noc(=O)[nH]3)nc(N[C@H](C)C3CCC3)c2n1C[C@H]1CC[C@H](C)CC1 (stereo partly drawn) [Example 11.3, 3-(6-(((R)-1-cyclobutylethyl)amino)-8-(2-isobutylpiperidin-1-yl)-7-((trans-4-methylcyclohexyl)methyl)-7H-purine-2-yl)-1,2,4-oxadiazol-5(4H)-one]	6.14
C[C@@H](Nc1nc(C(=O)O)nc2nc(N3CCCCC3C3CCCCC3)n(C[C@H]3CC[C@H](C)CC3)c12)C1CCC1 (stereo partly drawn) [Example 11.4, 6-(((R)-1-cyclobutylethyl)amino)-8-(2-cyclohexylpiperidin-1-yl)-7-((trans-4-methylcyclohexyl)methyl)-7H-purine-2-carboxylic acid]	1.56
C[C@@H](Nc1nc(-c2noc(=O)[nH]2)nc2nc(N3CCCCC3C3CCCCC3)n(C[C@H]3CC[C@H](C)CC3)c12)C1CCC1 (stereo partly drawn) [Example 11.5, 3-(6-(((R)-1-cyclobutylethyl)amino)-8-(2-cyclohexylpiperidin-1-yl)-7-((trans-4-methylcyclohexyl)methyl)-7H-purine-2-yl)-1,2,4-oxadiazol-5(4H)-one]	450
CC1CCCN(c2nc3nc(C(=O)O)nc(N[C@H](C)C4CCC4)c3n2C[C@H]2CC[C@H](C)CC2)C1c1ccccc1 (stereo partly drawn) [Example 11.6, 6-(((R)-1-cyclobutylethyl)amino)-8-(3-methyl-2-phenylpiperidin-1-yl)-7-((trans-4-methylcyclohexyl)methyl)-7H-purine-2-carboxylic acid]	1.82
CC1CCCN(c2nc3nc(-c4noc(=O)[nH]4)nc(N[C@H](C)C4CCC4)c3n2C[C@H]2CC[C@H](C)CC2)C1c1ccccc1 (stereo partly drawn) [Example 11.7, 3-(6-(((R)-1-cyclobutylethyl)amino)-8-(3-methyl-2-phenylpiperidin-1-yl)-7-((trans-4-methylcyclohexyl)methyl)-7H-purin-2-yl)-1,2,4-oxadiazol-5(4H)-one]	6.34
C[C@@H](Nc1nc(-c2noc(=O)[nH]2)nc2nc(N3CCC[C@H]3CF)n(C[C@H]3CC[C@H](C)CC3)c12)C1CCC1 [Example 11.8, 3-(6-{[(1R)-1-cyclobutylethyl]amino}-8-[(2S)-2-(fluoromethyl)pyrrolidin-1-yl]-7-[(trans-4-methylcyclohexyl)methyl]-7H-purin-2-yl)-1,2,4-oxadiazol-5(4H)-one]	2.36
C[C@H]1CC[C@H](Cn2c(N3CCOC[C@H]3c3ccccc3)nc3nc(-c4noc(=O)[nH]4)nc(N4CC[C@@H]4C4CCC4)c32)CC1 [Example 11.9, 3-(6-((R)-2-Cyclobutylazetidin-1-yl)-7-((trans-4-methylcyclohexyl)methyl)-8-((R)-3-phenylmorpholino)-7H-purin-2-yl)-1,2,4-oxadiazol-5(4H)-one]	27.3
C[C@@H](Nc1nc(C(=O)O)nc2nc(N3CCOC[C@H]3c3ccccc3)n(C[C@H]3CC[C@H](C)CC3)c12)C1CCC1 [Example 11.10, 6-{[(1R)-1-cyclobutylethyl]amino}-7-[(trans-4-methylcyclohexyl)methyl]-8-[(3R)-3-phenylmorpholin-4-yl]-7H-purine-2-carboxylic acid]	0.202
C[C@@H](Nc1nc(-c2noc(=O)[nH]2)nc2nc(N3CCOC[C@H]3c3ccccc3)n(C[C@H]3CC[C@H](C)CC3)c12)C1CCC1 [Example 11.11, 3-(6-{[(1R)-1-cyclobutylethyl]amino}-7-[(trans-4-methylcyclohexyl)methyl]-8-[(3R)-3-phenylmorpholin-4-yl]-7H-purin-2-yl)-1,2,4-oxadiazol-5(4H)-one]	0.626
C[C@@H](Nc1nc(C(=O)O)nc2nc(N3CCCC[C@@H]3c3ccccc3)n(C[C@H]3CC[C@H](C)CC3)c12)C1CCC1 [Example 11.12, 6-{[(1R)-1-cyclobutylethyl]amino}-7-[(trans-4-methylcyclohexyl)methyl]-8-[(2R)-2-phenylpiperidin-1-yl]-7H-purine-2-carboxylic acid]	2.82
C[C@@H](Nc1nc(-c2noc(=O)[nH]2)nc2nc(N3CCCC[C@@H]3c3ccccc3)n(C[C@H]3CC[C@H](C)CC3)c12)C1CCC1 [Example 11.13, 3-(6-{[(1R)-1-cyclobutylethyl]amino}-7-[(trans-4-methylcyclohexyl)methyl]-8-[(2R)-2-phenylpiperidin-1-yl]-7H-purin-2-yl)-1,2,4-oxadiazol-5(4H)-one]	26.7
C[C@@H](Nc1nc(C(=O)O)nc2nc(N3CCCC[C@H]3c3ccccc3)n(C[C@H]3CC[C@H](C)CC3)c12)C1CCC1 [Example 11.14, 6-{[(1R)-1-cyclobutylethyl]amino}-7-[(trans-4-methylcyclohexyl)methyl]-8-[(2S)-2-phenylpiperidin-1-yl]-7H-purine-2-carboxylic acid]	0.381
C[C@@H](Nc1nc(-c2noc(=O)[nH]2)nc2nc(N3CCCC[C@H]3c3ccccc3)n(C[C@H]3CC[C@H](C)CC3)c12)C1CCC1 [Example 11.15, 3-(6-{[(1R)-1-cyclobutylethyl]amino}-7-[(trans-4-methylcyclohexyl)methyl]-8-[(2S)-2-phenylpiperidin-1-yl]-7H-purin-2-yl)-1,2,4-oxadiazol-5(4H)-one]	2.81
C[C@@H](Nc1nc(C(=O)O)nc2nc(N3CCCCC3c3cccc(F)c3)n(C[C@H]3CC[C@H](C)CC3)c12)C1CCC1 (stereo partly drawn) [Example 11.16, 6-{[(1R)-1-cyclobutylethyl]amino}-8-[2-(3-fluorophenyl)piperidin-1-yl]-7-[(trans-4-methylcyclohexyl)methyl]-7H-purine-2-carboxylic acid]	2.84
C[C@@H](Nc1nc(C(=O)O)nc2nc(N3CCc4ccccc4C3)n(C[C@H]3CC[C@H](C)CC3)c12)C1CCC1 [Example 11.17, 6-{[(1R)-1-cyclobutylethyl]amino}-8-(3,4-dihydroisoquinolin-2(1H)-yl)-7-[(trans-4-methylcyclohexyl)methyl]-7H-purine-2-carboxylic acid]	17.9
C[C@@H](Nc1nc(C(=O)O)nc2nc(N3CCCCC3c3ccc(F)cc3)n(C[C@H]3CC[C@H](C)CC3)c12)C1CCC1 (stereo partly drawn) [Example 11.18, 6-{[(1R)-1-cyclobutylethyl]amino}-8-[2-(4-fluorophenyl)piperidin-1-yl]-7-[(trans-4-methylcyclohexyl)methyl]-7H-purine-2-carboxylic acid]	4.42
C[C@@H](Nc1nc(C(=O)O)nc2nc(N3CCCCC3c3cccnc3)n(C[C@H]3CC[C@H](C)CC3)c12)C1CCC1 (stereo partly drawn) [Example 11.19, 6-{[(1R)-1-cyclobutylethyl]amino}-7-[(trans-4-methylcyclohexyl)methyl]-8-(2-pyridin-3-ylpiperidin-1-yl)-7H-purine-2-carboxylic acid]	0.895
C[C@@H](Nc1nc(C(=O)O)nc2nc(N3CCCC4CCCCC43)n(C[C@H]3CC[C@H](C)CC3)c12)C1CCC1 (stereo partly drawn) [Example 11.20, 6-{[(1R)-1-cyclobutylethyl]amino}-7-[(trans-4-methylcyclohexyl)methyl]-8-(octahydroquinolin-1(2H)-yl)-7H-purine-2-carboxylic acid]	1.34
C[C@@H](Nc1nc(C(=O)O)nc2nc(N3CCCCC3c3ccccn3)n(C[C@H]3CC[C@H](C)CC3)c12)C1CCC1 (stereo partly drawn) [Example 11.21, 6-{[(1R)-1-cyclobutylethyl]amino}-7-[(trans-4-methylcyclohexyl)methyl]-8-(2-pyridin-2-ylpiperidin-1-yl)-7H-purine-2-carboxylic acid]	2.72
